How the values were obtained:
Pfu Csx1 [1] = molecular target: T1, Pfu Csx1 (Pyrococcus furiosus, UniProt Q8U1S8); experiment: RNase activation assay, […]'-32P-labelled target RNA, urea-PAGE; format: biochemical; conditions: allosteric activator via CARF domain; synthetic cA4 at 1.85, 18.5 and 185 pM; 20 nM Csx1; 20 mM Tris-HCl pH 7.5, 200 mM NaCl, 70 °C
T1 construct: gene PF1127; full-length, N-terminal 6x-His tag, modified pET24-D, expressed in E. coli BL21-RIPL (DE3)
T1 sequence (Q8U1S8 1-478): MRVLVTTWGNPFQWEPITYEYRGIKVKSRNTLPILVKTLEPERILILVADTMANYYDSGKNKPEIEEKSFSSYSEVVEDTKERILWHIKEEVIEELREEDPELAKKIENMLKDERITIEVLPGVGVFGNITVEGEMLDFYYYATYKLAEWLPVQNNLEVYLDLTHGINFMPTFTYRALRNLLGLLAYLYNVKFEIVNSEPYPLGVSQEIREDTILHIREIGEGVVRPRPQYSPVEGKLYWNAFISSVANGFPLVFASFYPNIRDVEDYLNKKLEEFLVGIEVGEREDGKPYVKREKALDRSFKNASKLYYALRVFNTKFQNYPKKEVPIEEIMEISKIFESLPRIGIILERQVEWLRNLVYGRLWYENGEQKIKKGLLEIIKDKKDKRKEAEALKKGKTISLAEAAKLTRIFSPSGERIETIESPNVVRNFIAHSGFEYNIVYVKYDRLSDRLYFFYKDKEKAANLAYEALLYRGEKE

Pfu Csx1 [2] = molecular target: T1, Pfu Csx1; experiment: cleavage of radiolabelled Cmr-produced native cOA, sequencing gel; format: biochemical; conditions: HEPN active site; labelled compound; native cOA preparation (mainly cA4, also cA3), product presumed A2>p; 70 °C

## Nc1ncnc2c1ncn2[C@@H]1O[C@@H]2COP(=O)(O)O[C@H]3[C@@H](O)[C@H](n4cnc5c(N)ncnc54)O[C@@H]3COP(=O)(O)O[C@H]3[C@@H](O)[C@H](n4cnc5c(N)ncnc54)O[C@@H]3COP(=O)(O)O[C@H]3[C@@H](O)[C@H](n4cnc5c(N)ncnc54)O[C@@H]3COP(=O)(O)O[C@H]2[C@H]1O [cA4]
Pfu Csx1 [1]
  RNase activation assay, 5'-32P-labelled target RNA, urea-PAGE: cA4 but not cA6 stimulated the ribonuclease activity of Csx1
Pfu Csx1 [2]
  cleavage of radiolabelled Cmr-produced native cOA, sequencing gel: also degrades its cognate cyclic-tetra-AMP (cA4) activator to switch off the signaling pathway

From publication PMC7192623, “Regulation of the RNA and DNA nuclease activities required for Pyrococcus furiosus Type III-B CRISPR–Cas immunity” (Nucleic Acids Research, 2020)
